Laboratory results as given in patent US4542219A, “Certain heterocyclic ammonio phosphate derivatives” (Takeda Chemical Industries, Ltd., priority 1981, dated 1985).
Like-named read-outs stand apart in the source and are kept apart here.

Tests used:
[1] = test system: Tetrahymena pyriformis W; assay: Antiprotozoal activity, broth dilution method; type: cell-based; details: 28° C. for 44 to 48 hours, pH 7.0
Protocol: The antiprotozoal activity values given in Table 2 were assayed using Tetrahymena pyriformis W as the test organism and an assay medium composed of 20 g tryptose peptone (Difco), 1 g yeast extract, 2 g glucose, 1000 ml distilled water and 10 ml 1 M phosphate buffer, pH 7.0. Thus, the strain was incubated at 28° C. for 44 to 48 hours and the minimal inhibitory concentration (MIC) of the compound (I) was determined by the broth dilution method.

[2] = test system: Cryptococcus neoformans; assay: Antimycotic activity, paper disk zone of inhibition; type: cell-based; details: 48 h, 3 mg/ml, 8 mm paper disk, 37° C. for 2 days, read-out: Diameter of inhibition zone
Protocol: The antimycotic activity values presented in Table 2 were assayed using Cryptococcus neoformans as the test organism. Thus, a paper disk (8 mm dia.) was dipped into an aqueous solution of the test compound (3 mg/ml), dried in the air and set in position on an agar medium. The medium was incubated at 37° C. for 2 days, at the end of which time the diameter of the zone of inhibition was measured. When the diameter of the zone was not larger than 8 mm, 8-10 mm, 10-20 mm and larger than 20 mm, the activity was judged as -, ±, + and ++, respectively.

[3] = test system: Pyricularia oryzae; assay: microbe, parasite or virus in culture; type: cell-based
[4] = test system: Helminthosporium oryzae; assay: Antifungal activity, serial dilution method; type: cell-based; details: Bipolaris oryzae
[5] = test system: Botrytis cinerea; assay: Antifungal activity, serial dilution method; type: cell-based
[6] = test system: Helminthosporium sigmordeum; assay: Antifungal activity, serial dilution method; type: cell-based
[7] = test system: Sclerotinia sclerotiorum; assay: Antifungal activity, serial dilution method; type: cell-based; details: kidney bean stem rot, 1% glucose-bouillon agar
[8] = test system: Colletotrichum lagenarium; assay: Antifungal activity, serial dilution method; type: cell-based; details: Colletotrichum orbiculare
[9] = test system: Aspergillus niger; assay: Antifungal activity, serial dilution method; type: cell-based
[10] = test system: Penicillium niger; assay: Antifungal activity, serial dilution method; type: cell-based
[11] = test system: Saccharomyces cerevisiae; assay: Antifungal activity, serial dilution method; type: cell-based
[12] = test system: human promyelocytic leukemia cell HL-60; assay: Cell proliferation inhibition and differentiation induction, human promyelocytic leukemia cell HL-60 (Test Example 1): proliferation; type: cell-based; details: HL-60, 120 h, 5 days' culture, read-out: Cell proliferation inhibitory activity GD50
Protocol: The cell proliferation inhibitory activity (GD50) and differentiation inducing activity of the compound of this invention against human promyelocytic leukemia cell HL-60 are shown in Table 1. The assays were performed by the method described for example in R. Gallo et al, Blood. vol. 54, No. 3, 713 (1979).

[13] = test system: sarcoma 180; assay: Antitumor activity against sarcoma 180; type: in vivo, ICR mice; details: 500 μg/mouse
[14] = test system: MM46 mammarian carcinoma; assay: Antitumor activity against MM46 mammarian carcinoma; type: in vivo, C3 H/He mice; details: 250 μg/mouse/day, once daily, eight days in total; control average 14.2 days
Protocol: MM46 mammarian carcinoma cells (1×10^5) was transplanted intraperitoneally to each of five C3 H/He mice group. From five days to two days before the transplantation and from two day to five days after the transplantation, eight days in total. 250 μg/mouse/day of the test compound was administered to the test group, once daily. Survival period of three of the test group was not less than 60 days, and that of the remaining two was 23 days in average. On the other hand, the average survival period of mice of the control group was 14.2 days.

[15] = Hemolysis test (method of Gottfried et al); type: cell-based; details: erythrocytes; in the presence of 5% human albumin; read-out: 50% hemolytic concentration
Text: The compound (I) is of relatively low toxicity and has generally low hemolytic activity. […] In these compounds (I), the influence of the length of chain R^1 varies with the other moiety of the molecule.

[16] = gray mold, 1% glucose-bouillon agar, read-out: MIC
[17] = black mold, 1% glucose-bouillon agar, read-out: MIC
[18] = blue mold, 1% glucose-bouillon agar, read-out: MIC
[19] = rice stem rot, 1% glucose-bouillon agar, read-out: MIC
[20] = cucumber anthracnose, 1% glucose-bouillon agar, read-out: MIC
[21] = brewer's yeast, 1% glucose-bouillon agar, read-out: MIC

SMILES | MIC [1] [µg/mL] | zone of inhibition at 3000 µg/mL [2] [mm] | MIC [3] [µg/mL] | MIC [4] [µg/mL] | MIC [7] [µg/mL] | MIC [9, 17] [µg/mL] | IC50 [12] [µg/mL] | further results
CCCCCCCC/C=C\CCCCCCCCOCCOP(=O)([O-])OCC[N+](C)(C)C [Production Example 3, 2-Oleyloxyethyl 2-trimethylammonioethyl phosphate] | 0.4 | > 20 | 1.56 | 6.25 | 100 | 25 | – | MIC [5, 16]: 3.12 µg/mL; MIC [6]: 6.25 µg/mL; MIC [8]: 6.25 µg/mL; MIC [10, 18]: 50 µg/mL; MIC [11]: 12.5 µg/mL
CCCCCCCCCCCCCCOCCOP(=O)([O-])OCC[N+](C)(C)CCCC(=O)OC [Production Example 11, 2-Tetradecyloxyethyl 2-[N,N-dimethyl-N-(3-methoxycarbonylpropyl)]ammonioethyl phosphate] | 4 | – | – | – | – | – | 2.5 | –
CCCCCCCCCCCCOCCOP(=O)([O-])OCC[N+](C)(C)C [Production Example 4, 2-Dodecyloxyethyl 2-trimethylammonioethyl phosphate] | 0.4 | 10 to 20 | 12.5 | 12.5 | 100 | 25 | – | MIC [5, 16]: 25 µg/mL; MIC [6, 19]: 25 µg/mL; MIC [8, 20]: 6.25 µg/mL; MIC [10, 18]: 25 µg/mL; MIC [11, 21]: 25 µg/mL
CCCCCCCCCCCCCCOCCOP(=O)([O-])OCC[n+]1ccccc1 [Production Example 9, 2-Tetradecyloxyethyl 2-pyridinioethyl phosphate] | 4 | > 20 | – | – | – | – | 4.1 | –
CCCCCCCCCCCCCCCOCCOP(=O)([O-])OCC[n+]1ccccc1 [Production Example 8, 2-Pentadecyloxyethyl 2-pyridinioethyl phosphate] | 4 | 10 to 20 | – | – | – | – | 3.4 | –
CCCCCCCCCCCCCCOCCOP(=O)([O-])OCC[N+](C)(C)CCCC(=O)O [Production Example 12, 2-Tetradecyloxyethyl 2-[N-(3-carboxypropyl)-N,N-dimethyl]ammonioethyl phosphate] | 0.4 | – | – | – | – | – | 1.5 | –
CCCCCCCCCCCCCCCCCCOCCOP(=O)([O-])OCC[n+]1ccccc1 [Production Example 10, 2-Octadecyloxyethyl 2-pyridinioethyl phosphate] | 4 | – | – | – | – | – | 1.5 | survival rate of the test group against the control group T/C [13]: 310%; Average survival period ([13]; four days before ip transplantation of 1×10^5 cells, control 9.6 days): 29.8 days; Average survival period of the remaining two of the test group (five mice) [14]: 23 days; Survival period of three of the test group (five mice) [14]: not less than 60 days
CCCCCCCCCCCCCCOCCOP(=O)(O)OCCN [Production Example 5, 2-Tetradecyloxyethyl 2-aminoethyl phosphate] | 4 | 8 to 10 | 25 | > 100 | 100 | 25 | – | MIC [5]: 50 µg/mL; MIC [6, 19]: > 100 µg/mL; MIC [8, 20]: 25 µg/mL; MIC [10, 18]: 50 µg/mL; MIC [11, 21]: 25 µg/mL
CCCCCCCCCCCCCOCCOP(=O)([O-])OCC[N+](C)(C)C [Production Example 2, 2-Tridecyloxyethyl 2-trimethylammonioethyl phosphate] | 0.4 | > 20 | 6.25 | 6.25 | 12.5 | 12.5 | – | MIC [5, 16]: 12.5 µg/mL; MIC [6]: 6.25 µg/mL; MIC [8]: 3.12 µg/mL; MIC [10]: 25 µg/mL; MIC [11]: 6.25 µg/mL; HC50 [15]: ~80 µg/mL
CCCCCCCCCCCCCCOCCOP(=O)([O-])OCC[N+](C)(C)C [Production Example 1, 2-Tetradecyloxyethyl 2-trimethylammonioethyl phosphate] | 0.4 | > 20 | 3.12 | 12.5 | 50 | – | 3.8 | MIC [5]: 12.5 µg/mL; MIC [6]: 3.12 µg/mL; MIC [8]: 3.12 µg/mL; MIC [9]: 12.5 µg/mL; MIC [10]: 12.5 µg/mL; MIC [11]: < 3.12 µg/mL
CCCCCCCCCCCCCCCCCCOCCOP(=O)(O)OCCN [Production Example 6, 2-Octadecyloxyethyl 2-aminoethyl phosphate] | > 4 | 8 to 10 | – | – | – | – | 3 | –
CCCCCCCCCCCCCCCOCCOP(=O)([O-])OCC[N+](C)(C)C [Production Example 7, 2-Pentadecyloxyethyl 2-trimethylammonioethyl phosphate] | ≤ 1 | 10 to 20 | – | – | – | – | 1.2 | –
